Source: ChEMBL document CHEMBL1127888, “Synthesis and biological activity of intercalator substituted bile steroids” (Bioorg Med Chem Lett, 1994)
pIC50: −log10 of the molar value.

Legend:
[1] = test system: L1210; assay: Inhibitory activity against mouse leukemia L1210 cells; Range is 20 to >50; type: functional, cell-based
[2] = test system: L1210; assay: Inhibitory activity against mouse leukemia L1210 cells; type: functional, cell-based

pIC50 [1]	pIC50 [2]	SMILES
< 4.30		CC(CCCOC(=O)c1cnc2ccccc2c1)C1CC[C@H]2[C@@H]3[C@H](O)CC4C[C@H](OC(=O)c5cnc6ccccc6c5)CC[C@]4(C)[C@H]3C[C@H](O)[C@]12C (stereo not given in full)
	5.32	CC(CCCOC(=O)c1cnc2ccccc2c1)C1CC[C@H]2[C@@H]3[C@H](O)CC4C[C@H](O)CC[C@]4(C)[C@H]3C[C@H](O)[C@]12C (stereo not given in full)
< 4.30		CC(CCCOC(=O)c1ccc2ccccc2n1)C1CC[C@H]2[C@@H]3[C@H](O)CC4C[C@H](OC(=O)c5ccc6ccccc6n5)CC[C@]4(C)[C@H]3C[C@H](O)[C@]12C (stereo not given in full)
< 4.30		CC(CCCOC(=O)c1ccc2ccccc2n1)C1CC[C@H]2[C@@H]3[C@H](O)CC4C[C@H](OC(=O)c5cnc6ccccc6n5)CC[C@]4(C)[C@H]3C[C@H](O)[C@]12C (stereo not given in full)
< 4.30		CC(CCCOC(=O)c1cnc2ccccc2n1)C1CC[C@H]2[C@@H]3[C@H](O)CC4C[C@H](OC(=O)c5cnc6ccccc6n5)CC[C@]4(C)[C@H]3C[C@H](O)[C@]12C (stereo not given in full)
